Measured values from US20080293583A1, “Methods for diagnosing mood disorders” (Wyeth, priority 2003, published 2008).

Columns and labels:
Assay type in all cases: in vivo
[1] = system: Adenine Phosphoribosyltransferase (APRT); assay: 2-DE proteome analysis of rat hippocampus: APRT; conditions: rat hippocampus cytosolic extract, 10 mg/kg i.p. daily 14 days, vs control; gel spot 57
Experimental: (§1) Animal dosing. Adult male Sprague Dawley rats weighing 230-320 g were housed with ad libitum access to food and water. After 1 week of habituation, rats were administered either an antidepressant or vehicle alone. The following drugs were administered intraperitoneally (i.p.): fluoxetine (10 mg/kg daily), venlafaxine (10 mg/kg daily) or vehicle alone (1 ml/kg normal saline daily) for 14 days (n=3 rats per group).
(§2) Sample preparation and cytosolic protein extraction. The animals were euthanized and hippocampi were rapidly dissected from the whole brain. Samples from each treatment group were pooled and stored at −85° C. Cytosolic extracts were prepared using the universal extraction kit from Sigma (prot-two) as follows: soluble cytoplasmic extraction reagent (S2688) was added to the hippocampal tissue (10 ml/250 mg wet weight). […]
(§3) Two-dimensional gel electrophoresis. […] Molecular masses were determined by running standard protein markers (Genomic Solutions Inc.), covering the range 10-200 kDa as well as internal verification via landmark proteins within the gel. […]
(§4) Protein fixation, silver staining and 2-D gel comparisons. […] Protein spots were outlined (first automatically and then manually) and quantified using the HT analyzer v2.2 software (Genomic Solutions Inc.). The software calculated the relative spot volume of the proteins compared with the total amount of protein in the gel. […]

[2] = system: PCTAIRE-3 (Serine/Threonine-Protein Kinase); assay: 2-DE proteome analysis of rat hippocampus: PCTAIRE-3; conditions: rat hippocampus cytosolic extract, 10 mg/kg i.p. daily 14 days, vs control; gel spot 6
Experimental: as §1, §2, §3, §4

[3] = system: 40 S ribosomal protein S 19; assay: 2-DE proteome analysis of rat hippocampus: ribosomal protein S 19; conditions: rat hippocampus cytosolic extract, 10 mg/kg i.p. daily 14 days, vs control; gel spot 72
Experimental: as §1, §2, §3, §4

[4] = system: Hydroxysteroid sulfotransferase A (Androsterone-sulfating sulfotransferase); assay: 2-DE proteome analysis of rat hippocampus: Hydroxysteroid sulfotransferase A; conditions: rat hippocampus cytosolic extract, 10 mg/kg i.p. daily 14 days, vs control; gel spot 79
Experimental: as §1, §2, §3, §4

[5] = system: NG, NG-Dimethylarginine Dimethylaminohydrolase 1 (DDAH1); assay: 2-DE proteome analysis of rat hippocampus: DDAH1; conditions: rat hippocampus cytosolic extract, 10 mg/kg i.p. daily 14 days, vs control; gel spot 18
Experimental: as §1, §2, §3, §4

[6] = system: Transcription factor BTEB 1; assay: 2-DE proteome analysis of rat hippocampus: BTEB 1; conditions: rat hippocampus cytosolic extract, 10 mg/kg i.p. daily 14 days, vs control; gel spot 19
Experimental: as §1, §2, §3, §4

[7] = system: GLIA maturation factor beta (GMF-β); assay: 2-DE proteome analysis of rat hippocampus: GMF-β; conditions: rat hippocampus cytosolic extract, 10 mg/kg i.p. daily 14 days, vs control; gel spot 67
Experimental: as §1, §2, §3, §4

[8] = system: Ras-related protein RAB-4A; assay: 2-DE proteome analysis of rat hippocampus: RAB-4A; conditions: rat hippocampus cytosolic extract, 10 mg/kg i.p. daily 14 days, vs control; gel spot 90 (mix)
Experimental: as §1, §2, §3, §4

[9] = system: Antioxidant protein 2 (calcium-independent PLA2); assay: 2-DE proteome analysis of rat hippocampus: Antioxidant protein 2; conditions: rat hippocampus cytosolic extract, 10 mg/kg i.p. daily 14 days, vs control; gel spot 51
Experimental: as §1, §2, §3, §4

[10] = system: Ras-related protein RAB-1B; assay: 2-DE proteome analysis of rat hippocampus: RAB-1B; conditions: rat hippocampus cytosolic extract, 10 mg/kg i.p. daily 14 days, vs control; gel spot 90 (mix)
Experimental: as §1, §2, §3, §4

D-dopachrome tautomerase = assay: 2-DE proteome analysis of rat hippocampus: D-dopachrome tautomerase; conditions: rat hippocampus cytosolic extract, 10 mg/kg i.p. daily 14 days, vs control; gel spot 93
Experimental: as §1, §2, §3, §4

[11] = system: Myelin Basic Protein S (MBP S); assay: 2-DE proteome analysis of rat hippocampus: MBP S; conditions: rat hippocampus cytosolic extract, 10 mg/kg i.p. daily 14 days, vs control; gel spot 64
Experimental: as §1, §2, §3, §4

[12] = system: Probasin precursor (lipocalin family member); assay: 2-DE proteome analysis of rat hippocampus: Probasin precursor; conditions: rat hippocampus cytosolic extract, 10 mg/kg i.p. daily 14 days, vs control; gel spot 70
Experimental: as §1, §2, §3, §4

IGF-1 A precursor = assay: 2-DE proteome analysis of rat hippocampus after antidepressant treatment: IGF-1 A precursor; conditions: rat hippocampus cytosolic extract, 10 mg/kg i.p. daily 14 days, vs control; gel spot 87
Experimental: as §1, §2, §3, §4

[13] = system: 60S Ribosomal Protein L35A; assay: 2-DE proteome analysis of rat hippocampus: Ribosomal Protein L35A; conditions: rat hippocampus cytosolic extract, 10 mg/kg i.p. daily 14 days, vs control; gel spot 92
Experimental: as §1, §2, §3, §4

SMILES | Fold change, Adenine Phosphoribosyltransferase (APRT) [1] | Fold change, PCTAIRE-3 [2] | Fold change, 40 S ribosomal protein S 19 [3] | Fold change, Hydroxysteroid sulfotransferase A [4] | Fold change, NG, NG-Dimethylarginine Dimethylaminohydrolase 1 (DDAH1) [5] | Fold change, Transcription factor BTEB 1 [6] | Fold change, GLIA maturation factor beta (GMF-β) [7] | Fold change, Ras-related protein RAB-4A [8] | Fold change, Antioxidant protein 2 [9] | Fold change, Ras-related protein RAB-1B [10] | Fold change, D-dopachrome tautomerase (D-dopachrome tautomerase) | Fold change, Myelin Basic Protein S (MBP S) [11] | Fold change, Probasin precursor [12] | Fold change, IGF-1 A precursor (IGF-1 A precursor) | Fold change, 60S Ribosomal Protein L35A [13]
CNCCC(Oc1ccc(C(F)(F)F)cc1)c1ccccc1 (stereo not drawn) [Fluoxetine, fluoxetine] | 5.8 Fold change | 1.5 Fold change | 2 Fold change | 2 Fold change | 1.6 Fold change | 1.6 Fold change | 3 Fold change | 1.5 Fold change | 1.6 Fold change | 1.5 Fold change | 2.2 Fold change | 3.1 Fold change | 2.7 Fold change | 2.5 Fold change | 2.2 Fold change
COc1ccc(C(CN(C)C)C2(O)CCCCC2)cc1 (stereo not drawn) [Venlafaxine, venlafaxine] | 3 Fold change | 1.5 Fold change | 1.8 Fold change | 2 Fold change | 2.2 Fold change | 2.3 Fold change | 2.7 Fold change | 1.5 Fold change | 1.7 Fold change | 1.5 Fold change | 2.3 Fold change | 3.7 Fold change | 2.7 Fold change | 2.9 Fold change | 2.5 Fold change
